The values below are quoted from earlier work in PubChem BioAssay AID1259409 (Chemical Carcinogenesis Research Information System (CCRIS), 2018).

For the data set, the system named is rodent chemically induced tumor inhibition, incidence and multiplicity. The data set can be described thus: CCRIS tumor inhibitor studies. Particulars: Route [Inhibitor]: ORAL.

The structures appear in SMILES notation.

As for `O=[Se](O)O`, the “tumour outcome (control, treated, inhibition, significance)” value (Carcinogen: DIETHYLNITROSAMINE, 55-18-5, Dose [Inhibitor]: 0, 10 MG/L IN DRINKING WATER FOR DURATION OF STUDY BEGINNING 4 D POST CARCINOGEN TREATMENT (STUDY DURATION: 6 MO), Species: RAT, Strain/Sex: BD6/FEMALE, Target Tissue: Type of Lesion: ESOPHAGUS: TUMOR, Dose [Carcinogen]: 80 MG/KG BW 1/WK FOR 9 WK, Promoter: NONE USED) is recorded as 29%, 18%, 38%, not significant; the “tumour outcome (control, treated, inhibition, significance)” value (Carcinogen: DIETHYLNITROSAMINE, 55-18-5, Dose [Inhibitor]: 0, 10 MG/L IN DRINKING WATER FOR DURATION OF STUDY BEGINNING 7 D PRIOR TO CARCINOGEN TREATMENT (STUDY DURATION: 6 MO), Species: RAT, Strain/Sex: BD6/FEMALE, Target Tissue: Type of Lesion: ESOPHAGUS: TUMOR, Dose [Carcinogen]: 80 MG/KG BW 1/WK FOR 7 WK, Promoter: NONE USED) is listed as 25%, 14%, 44%, not significant; the “tumour outcome (control, treated, inhibition, significance)” value (Carcinogen: DIETHYLNITROSAMINE, 55-18-5, Dose [Inhibitor]: 0, 10 MG/L IN DRINKING WATER FOR DURATION OF STUDY BEGINNING 7 D PRIOR TO CARCINOGEN TREATMENT (STUDY DURATION: 6 MO), Species: RAT, Strain/Sex: BD6/FEMALE, Target Tissue: Type of Lesion: LIVER: TUMOR, Dose [Carcinogen]: 80 MG/KG BW 1/WK FOR 7 WK, Promoter: NONE USED) was 64%, 31%, 52%, p<0.05; the “tumour outcome (control, treated, inhibition, significance)” value (Carcinogen: DIETHYLNITROSAMINE, 55-18-5, Dose [Inhibitor]: 0, 10 MG/L IN DRINKING WATER FOR DURATION OF STUDY BEGINNING 7 D PRIOR TO FIRST CARCINOGEN DOSE (STUDY DURATION: 6 MO), Species: RAT, Strain/Sex: BD6/FEMALE, Target Tissue: Type of Lesion: ESOPHAGUS: TUMOR, Dose [Carcinogen]: 80 MG/KG BW 1/WK FOR 8 WK, Promoter: NONE USED) is 31%, 39%, -26%, not significant; the “tumour outcome (control, treated, inhibition, significance)” value (Carcinogen: DIETHYLNITROSAMINE, 55-18-5, Dose [Inhibitor]: 0, 10 MG/L IN DRINKING WATER FOR DURATION OF STUDY BEGINNING 7 D PRIOR TO FIRST CARCINOGEN DOSE (STUDY DURATION: 6 MO), Species: RAT, Strain/Sex: BD6/FEMALE, Target Tissue: Type of Lesion: ESOPHAGUS: TUMOR, Dose [Carcinogen]: 100 MG/L IN DRINKING WATER FOR 3.5 MO, Promoter: NONE USED) was 37%, 25%, 32%, not significant; the “tumour outcome (control, treated, inhibition, significance)” value (Carcinogen: DIETHYLNITROSAMINE, 55-18-5, Dose [Inhibitor]: 0, 10 MG/L IN DRINKING WATER FOR DURATION OF STUDY BEGINNING 7 D PRIOR TO FIRST CARCINOGEN DOSE (STUDY DURATION: 6 MO), Species: RAT, Strain/Sex: BD6/FEMALE, Target Tissue: Type of Lesion: LIVER: TUMOR, Dose [Carcinogen]: 80 MG/KG BW 1/WK FOR 8 WK, Promoter: NONE USED) is listed as 94%, 69%, 27%, not significant. For the same compound, the “tumour outcome (control, treated, inhibition, significance)” value runs as follows: (Carcinogen: DIETHYLNITROSAMINE, 55-18-5, Dose [Inhibitor]: 0, 10 MG/L IN DRINKING WATER FOR DURATION OF STUDY BEGINNING 7 D PRIOR TO FIRST CARCINOGEN DOSE (STUDY DURATION: 6 MO), Species: RAT, Strain/Sex: BD6/FEMALE, Target Tissue: Type of Lesion: LIVER: TUMOR, Dose [Carcinogen]: 100 MG/L IN DRINKING WATER FOR 3.5 MO, Promoter: NONE USED) 95%, 94%, 1%, not significant; (Carcinogen: DIETHYNITROSAMINE, 55-18-5, Dose [Inhibitor]: 0, 1 MG/L IN DRINKING WATER FOR DURATION OF STUDY BEGINNING 7 D PRIOR TO FIRST CARCINOGEN DOSE (STUDY DURATION: 6 MO), Species: RAT, Strain/Sex: BD6/FEMALE, Target Tissue: Type of Lesion: LIVER: TUMOR, Dose [Carcinogen]: 80 MG/KG BW 1/WK FOR 8 WK, Promoter: NONE USED) 85%, 75%, 12%, not significant; (Carcinogen: ETHYLNITROSOUREA, 759-73-9, Dose [Inhibitor]: 0, 4 MG/L TAP DRINKING WATER FOR LIFE (STUDY DURATION: 310 D), Species: RAT, Strain/Sex: ALBINO/MALE,FEMALE, Target Tissue: Type of Lesion: KIDNEY: MESENCHYMAL TUMOR OR ADENOCARCINOMA, Dose [Carcinogen]: 75 MG/KG IN SALINE BY INTRAVENOUS INJECTION ONCE 21 D AFTER CONCEPTION) 33/89 (37%), 20/55 (36%), 3%, not calculated; (Carcinogen: ETHYLNITROSOUREA, 759-73-9, Dose [Inhibitor]: 0, 4 MG/L TAP DRINKING WATER FOR LIFE (STUDY DURATION: 310 D), Species: RAT, Strain/Sex: ALBINO/MALE,FEMALE, Target Tissue: Type of Lesion: SPINAL CORD: TUMOR, Dose [Carcinogen]: 75 MG/KG IN SALINE BY INTRAVENOUS INJECTION ONCE 21 D AFTER CONCEPTION) 55/89 (62%), 32/55 (58%), 6%, not calculated; (Carcinogen: ETHYLNITROSOUREA, 759-73-9, Dose [Inhibitor]: 0, 4 MG/L TAP DRINKING WATER FOR LIFE (STUDY DURATION: 310 D), Species: RAT, Strain/Sex: ALBINO/MALE/FEMALE, Target Tissue: Type of Lesion: BRAIN: GLIOMA OR ASTROCYTOMA, Dose [Carcinogen]: 75 MG/KG IN SALINE BY INTRAVENOUS INJECTION ONCE 21 D AFTER CONCEPTION) 54/89 (61%), 33/55 (60%), 2%, not calculated; (Carcinogen: ETHYLNITROSOUREA, 759-73-9, Dose [Inhibitor]: 0, 4 MG/L TAP DRINKING WATER FOR LIFE (STUDY DURATION: 319 D), Species: RAT, Strain/Sex: ALBINO/MALE,FEMALE, Target Tissue: Type of Lesion: NERVOUS SYSTEM: SCHWANNOMA, Dose [Carcinogen]: 75 MG/KG IN SALINE BY INTRAVENOUS INJECTION ONCE 21 D AFTER CONCEPTION) 37/89 (42%), 21/55 (38%), 10%, not calculated. Moreover, the “tumour outcome (control, treated, inhibition, significance)” value is given as 14/14 (100%), 14/15 (93%), 7%, not significant (Carcinogen: METHYLAZOXYMETHANOL, 590-96-5, Dose [Inhibitor]: 4 PPM IN DRINKING WATER DAILY FOR 20 WK STARTING SIMULTANEOUSLY WITH CARCINOGEN TREATMENT AND CONTINUING THROUGH END OF, Species: RAT, Strain/Sex: SPRAGUE-DAWLEY/MALE, Target Tissue: Type of Lesion: COLON: ADENOCARCINOMA, Dose [Carcinogen]: 20 MG/KG BW 1/WK FOR 20 WK, Promoter: NONE USED); 18/25 (72%), 13/35 (37%), 49%, p<0.05 (Carcinogen: METHYLCHOLANTHRENE, 56-49-5, Dose [Inhibitor]: 0, 1 PPM IN DRINKING WATER FOR 13 WK BEGINNING 1 WK PRIOR TO CARCINOGEN TREATMENT (STUDY DURATION: 13 WK), Species: MOUSE, Strain/Sex: SWISS/FEMALE, Target Tissue: Type of Lesion: UTERUS: SQUAMOUS CELL TUMOR, Dose [Carcinogen]: 600 UG IN BEESWAX IMPREGNATED COTTON THREAD INSERTED INTO UTERINE CERVIX CANAL, Promoter: NONE USED); 88%, 88%, 0% (Carcinogen: N'-NITROSOBIS(2-OXOPROPYL)AMINE, 60599-38-4, Dose [Inhibitor]: 0.1, 4 PPM (43.5 UG/D) IN DRINKING WATER BEGINNING 8 WK PRIOR TO FIRST CARCINOGEN DOSE AND CONTINUING FOR DURATION OF ST, Species: HAMSTER, Strain/Sex: SYRIAN/FEMALE, Target Tissue: Type of Lesion: PANCREAS: TUMOR, Dose [Carcinogen]: 10 MG/KG IN 0.9% SALINE 1/WK FOR 10 WK, Promoter: NONE USED).
